The results in this text go back to US8134006B2, “Dialkylphenyl compounds having β2 adrenergic receptor agonist and muscarinic receptor antagonist activity” (Theravance, Inc., priority 2006, dated 2012).

The subject of one experiment is bronchoconstriction. The experiment can be described thus: Einthoven assay, duration of bronchoprotection. The settings on record: inhalation.
The subject of experiment [1] is acetylcholine or histamine bronchoconstriction. The experiment can be described thus: Plethysmograph guinea pig assay for bronchoprotective efficacy and duration. The settings on record: doses ranging from 3 μg/mL to 300 μg/mL, inhalation.
Method: In this assay, the bronchoprotective efficacy and duration of test compounds was determined using a guinea pig assay.
Groups of 6 male guinea pigs (Duncan-Hartley (HsdPoc:DH) Harlan, Madison, Wis.) weighing between 250 and 350 g were individually identified by cage cards. Throughout the study, animals were allowed access to food and water ad libitum. Test compounds were administered via inhalation over 10 minutes in a whole-body exposure dosing chamber (R&S Molds, San Carlos, Calif.). The dosing chambers were arranged so that an aerosol was simultaneously delivered to 6 individual chambers from a central manifold. Guinea pigs were exposed to an aerosol of a test compound or vehicle (WFI). […] The gas flow through the nebulizer at this operating pressure was approximately 3 L per minute. […] This value was measured gravimetrically by comparing pre- and post-nebulization weights of the filled nebulizer. […]
The pulmonary evaluation was initiated after determining that baseline values were within the range of 0.3 to 0.9 mL per cm H2O for compliance and within the range of 0.1 to 0.199 cm H2O per mL per second for resistance. […] The changes in volume over time that occurred within the plethysmograph with each breath were measured via a Buxco pressure transducer. By integrating this signal over time, a measurement of flow was calculated for each breth. […]
In a further experiment the target is cM5 receptor (UniProt Q5IS53). In words: Blockade of agonist-mediated calcium release via FLIPR. It counts as cell-based. Particulars: CHO cells expressing cM5, read-out: Kobs. As to the method:
In this functional assay, the functional potency of a test compound as an antagonist of hM1, hM3 and […] receptors was determined by measuring the ability of the test compound to inhibit agonist-mediated increases in intracellular calcium.
CHO cells stably expressing the receptors were seeded into 96-well FLIPR plates the night before the assay was done. Seeded cells were washed twice with FLIPR buffer (10 mM HEPES, pH 7.4, 2 mM calcium chloride, 2.5 mM probenecid in Hank's Buffered Salt Solution (HBSS) without calcium and magnesium) using Cellwash (MTX Labsystems, Inc.) to remove growth media. After washing, each well contained 50 μL of FLIPR buffer. […]
The dose-dependent stimulation of intracellular Ca^2+ release for oxotremorine was determined so that the test compound could be measured against oxotremorine stimulation at an EC90 concentration. […]
The parameters used for the FLIPR were: exposure length of 0.4 seconds, laser strength of 0.5 watts, excitation wavelength of 488 nm, and emission wavelength of 550 nm. Baseline was determined by measuring the change in fluorescence for 10 seconds prior to addition of oxotremorine. Following oxotremorine stimulation, the FLIPR continuously measured the change of fluorescence every 0.5 to 1 second for 1.5 minutes to capture the maximum fluorescence change. […]

The target in experiment [2] is T1, human β2 adrenergic receptor (Homo sapiens, UniProt P07550).
T1 construct: a cell line expressing endogenous levels of the β2 adrenergic receptor; host or cells: BEAS-2B human lung epithelial cell line
T1 sequence (P07550 whole entry): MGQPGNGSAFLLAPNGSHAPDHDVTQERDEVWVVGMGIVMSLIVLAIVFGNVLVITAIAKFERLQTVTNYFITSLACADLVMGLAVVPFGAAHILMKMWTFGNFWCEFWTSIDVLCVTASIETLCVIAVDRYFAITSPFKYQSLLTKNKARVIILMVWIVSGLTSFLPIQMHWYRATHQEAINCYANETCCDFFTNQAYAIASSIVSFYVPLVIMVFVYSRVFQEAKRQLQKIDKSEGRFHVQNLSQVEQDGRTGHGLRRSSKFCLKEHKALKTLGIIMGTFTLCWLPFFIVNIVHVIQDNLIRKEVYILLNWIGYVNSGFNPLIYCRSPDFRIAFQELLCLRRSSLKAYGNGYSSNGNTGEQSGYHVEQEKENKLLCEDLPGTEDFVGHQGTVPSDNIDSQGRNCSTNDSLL
In words: Whole-cell cAMP Flashplate assay with lung epithelial cell line (BEAS-2B) endogenously expressing β2 receptor. The experiment is classed as cell-based. The settings on record: BEAS-2B cells, compared with full β2 agonist isoproterenol (1.0). As to the method: In this assay, the agonist potency and intrinsic activity of a test compound were determined using a cell line expressing endogenous levels of the β2 adrenergic receptor.
On the day of the assay, cells were rinsed with PBS, lifted by scraping with 5 mM EDTA in PBS, and counted. Cells were pelleted by centrifugation at 1,000 rpm and re-suspended in stimulation buffer pre-warmed to 37° C. at a final concentration of 600,000 cells/mL. Cells were used at a final concentration of 100,000 to 120,000 cells/well in this assay. […] Plates were sealed, incubated over night at 4° C. and counted the next morning in a Topcount scintillation counter (Packard BioScience Co., Meriden, Conn.). […] Data were analyzed by nonlinear regression analysis with the GraphPad Prism Software package (GraphPad Software, Inc., San Diego, Calif.) using the 4-parameter model for sigmoidal dose-response.

In experiment [3] the test system is histamine-induced bronchoconstriction. In words: Einthoven assay, bronchoprotective efficacy against histamine. The settings on record: 1.5 hours post-dose, inhalation.
Method: (§1) In this assay, the bronchoprotective efficacy and duration of test compounds were determined using guinea pigs. […] In this assay, changes in ventilation pressure serve as a surrogate measure of airway resistance. Following pre-treatment with a test compound, muscarinic antagonist potency was determined using bronchoconstrictor dose-response curves to intravenous methacholine in the presence of propranolol. Similarly, β2 agonist bronchoprotective potency was determined using histamine. Combined bronchoprotective potency was determined using methacholine in the absence of propranolol.
(§2) The assay was conducted using male Duncan-Hartley guinea pigs (Harlan, Indianapolis, Ind.), weighing between 250 and 400 g. A test compound or vehicle (i.e., sterile water) was dosed by inhalation (IH) over a 10 minute time period in a whole body exposure dosing chamber (R+S Molds, San Carlos, Calif.) using 5 mL of dosing solution. […] Pulmonary function was evaluated at various time points after inhalation dosing.
(§3) The trachea was then dissected free and cannulated with a 14G needle (#NE-014, Small Parts, Miami Lakes, Fla.). […] Body temperature was maintained at 37° C. using a heating pad. […] The changes in VP were recorded on a Biopac Windows data collection interface. […] Changes in VP were recorded using the Acknowledge Data Collection Software (Santa Barbara, Calif.). […]
(§4) Change in VP was measured in cm of water. […]
Experiment [4] concerns methacholine-induced bronchoconstriction. The experiment can be described thus: Einthoven assay, bronchoprotective efficacy against methacholine. The settings on record: 1.5 hours post-dose, inhalation.
Method: as §1, §2, §3, §4

cM5 receptor, sequence (Q5IS53 whole entry): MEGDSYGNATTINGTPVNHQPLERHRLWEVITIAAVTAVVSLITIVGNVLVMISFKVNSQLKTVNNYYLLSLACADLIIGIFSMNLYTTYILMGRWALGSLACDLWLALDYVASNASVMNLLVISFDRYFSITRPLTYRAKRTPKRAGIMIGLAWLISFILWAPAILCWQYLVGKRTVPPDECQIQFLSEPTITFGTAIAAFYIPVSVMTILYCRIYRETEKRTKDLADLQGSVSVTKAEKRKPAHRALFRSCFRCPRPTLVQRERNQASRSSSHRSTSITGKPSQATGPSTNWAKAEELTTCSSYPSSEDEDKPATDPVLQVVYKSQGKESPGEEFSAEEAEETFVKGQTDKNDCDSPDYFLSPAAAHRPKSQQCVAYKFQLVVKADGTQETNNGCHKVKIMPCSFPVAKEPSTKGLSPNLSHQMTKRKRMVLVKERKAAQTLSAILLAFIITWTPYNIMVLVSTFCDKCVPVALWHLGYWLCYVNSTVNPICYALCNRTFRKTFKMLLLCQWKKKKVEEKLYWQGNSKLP

Take `C[N+]1(C)[C@@H]2C[C@@H](OC(=O)C(O)(c3cccs3)c3cccs3)C[C@H]1[C@@H]1O[C@@H]12` [tiotropium, reference compound]: the “duration of significant bronchoprotection” value in the experiment with bronchoconstriction (10 μg/mL) was “greater than 72 hours”.

As to `O=CNc1cc([C@@H](O)CNCc2ccc(NC(=O)CCN3CCC(OC(=O)Nc4ccccc4-c4ccccc4)CC3)cc2)ccc1O` [compound 50], the “bronchoprotection at 24 hours post-dose” value in experiment [1] is given as “no significant bronchoprotection”.

Turning to `Cc1cc(NC(=O)CCN2CCC(OC(=O)Nc3ccccc3-c3ccccc3)CC2)c(C)cc1CNC[C@H](O)c1ccc(O)c(NC=O)c1` [compound IIa, biphenyl-2-ylcarbamic acid 1-[2-(4-{[(R)-2-(3-formylamino-4-hydroxyphenyl)-2-hydroxyethylamino]methyl}-2,5-dimethylphenylcarbamoyl)ethyl]piperidin-4-yl ester], at cM5 receptor, the Ki was < 10 nM. Further, the intrinsic activity entry in experiment [2] is “greater than 0.3”. Further, in the experiment with bronchoconstriction (single sub-maximal dose 100 μg/mL), the “duration of significant bronchoprotection” value is recorded as “up to 72 hours”. Besides, the ID50 result in experiment [3] and in experiment [4] was “less than 50 μg/mL” each time.
